Each structure is given as a SMILES string.

T1 sequence (Q15858 whole entry): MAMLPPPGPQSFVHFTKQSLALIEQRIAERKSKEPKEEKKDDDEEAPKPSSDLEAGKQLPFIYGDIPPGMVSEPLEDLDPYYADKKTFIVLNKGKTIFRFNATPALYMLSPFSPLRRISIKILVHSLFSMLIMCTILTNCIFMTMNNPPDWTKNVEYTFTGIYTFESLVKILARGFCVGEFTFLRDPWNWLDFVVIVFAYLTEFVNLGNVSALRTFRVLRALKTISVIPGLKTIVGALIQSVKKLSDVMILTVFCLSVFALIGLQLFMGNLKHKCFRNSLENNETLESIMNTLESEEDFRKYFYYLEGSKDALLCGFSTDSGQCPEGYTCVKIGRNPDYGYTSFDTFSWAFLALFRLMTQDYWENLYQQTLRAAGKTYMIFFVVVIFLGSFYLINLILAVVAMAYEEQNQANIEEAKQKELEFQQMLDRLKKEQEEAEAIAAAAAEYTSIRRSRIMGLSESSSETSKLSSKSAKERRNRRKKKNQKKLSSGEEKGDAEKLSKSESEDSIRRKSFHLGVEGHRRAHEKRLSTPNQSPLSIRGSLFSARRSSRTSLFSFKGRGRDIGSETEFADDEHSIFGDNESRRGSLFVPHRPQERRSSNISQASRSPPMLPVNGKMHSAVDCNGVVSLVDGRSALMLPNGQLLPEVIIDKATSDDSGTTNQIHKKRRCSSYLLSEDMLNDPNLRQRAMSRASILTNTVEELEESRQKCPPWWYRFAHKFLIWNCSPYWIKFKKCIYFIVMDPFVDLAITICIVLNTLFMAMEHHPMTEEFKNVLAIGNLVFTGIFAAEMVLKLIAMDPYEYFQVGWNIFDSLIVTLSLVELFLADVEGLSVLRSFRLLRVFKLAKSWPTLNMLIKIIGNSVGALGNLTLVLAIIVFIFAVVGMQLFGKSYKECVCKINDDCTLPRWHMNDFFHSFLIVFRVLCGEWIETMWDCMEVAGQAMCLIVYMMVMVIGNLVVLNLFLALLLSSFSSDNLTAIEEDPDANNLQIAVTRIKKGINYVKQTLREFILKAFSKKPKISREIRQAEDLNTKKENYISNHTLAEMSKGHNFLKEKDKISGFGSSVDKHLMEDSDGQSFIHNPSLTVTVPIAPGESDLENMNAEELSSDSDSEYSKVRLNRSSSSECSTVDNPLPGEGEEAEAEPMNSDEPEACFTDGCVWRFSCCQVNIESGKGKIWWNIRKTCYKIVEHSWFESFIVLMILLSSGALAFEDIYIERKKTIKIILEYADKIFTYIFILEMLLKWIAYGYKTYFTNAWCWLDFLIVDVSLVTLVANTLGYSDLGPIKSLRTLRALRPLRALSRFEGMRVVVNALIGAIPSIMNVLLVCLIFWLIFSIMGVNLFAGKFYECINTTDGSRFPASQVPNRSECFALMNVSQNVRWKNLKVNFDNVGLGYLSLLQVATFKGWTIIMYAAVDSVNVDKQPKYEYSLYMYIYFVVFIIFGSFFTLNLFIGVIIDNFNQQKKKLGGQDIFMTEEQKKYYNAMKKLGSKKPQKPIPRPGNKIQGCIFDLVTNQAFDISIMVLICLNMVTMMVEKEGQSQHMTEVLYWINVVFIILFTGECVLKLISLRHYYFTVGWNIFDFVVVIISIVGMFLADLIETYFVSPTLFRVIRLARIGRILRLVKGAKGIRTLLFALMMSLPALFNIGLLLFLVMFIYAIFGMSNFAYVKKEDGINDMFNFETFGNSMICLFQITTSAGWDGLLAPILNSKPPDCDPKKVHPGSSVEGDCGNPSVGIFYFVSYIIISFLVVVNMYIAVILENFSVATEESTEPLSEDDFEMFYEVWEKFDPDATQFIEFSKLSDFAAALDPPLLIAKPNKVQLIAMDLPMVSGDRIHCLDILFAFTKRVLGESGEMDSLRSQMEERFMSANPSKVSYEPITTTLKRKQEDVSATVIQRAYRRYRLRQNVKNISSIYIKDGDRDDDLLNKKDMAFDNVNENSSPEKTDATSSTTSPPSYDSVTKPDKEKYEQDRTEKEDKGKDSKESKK

One experiment addresses T1, Nav 1.7 (Homo sapiens, UniProt Q15858).
T1 construct: expressed in transfected cells
The experiment in a line: Whole-cell voltage clamp electrophysiology, automated patch clamp (marker c in Table of Examples). The experiment is classed as cell-based. To be noted: marker c = Automated patch clamp data; read-out: Nav 1.7 activity. The procedure, abridged: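 A voltage protocol weighted toward inactivated-state block was used to test compounds on stably expressing cells, with pulses from −65 mV holding to −10 mV test and −100 mV. Currents came from whole-cell automated patch-clamp recordings, either IonWorks Quattro or other automated instruments, usually in perforated-patch mode.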
(In general: Patch clamp records ionic current or voltage across a cell membrane.)
Regarding `CN(c1ccccc1)c1nc(N)nc(-c2noc(N3CC(COc4ccccc4)C3)n2)n1` [Example 495, N-Methyl-6-[5-(3-phenoxymethylazetidin-1-yl)-[1,2,4]oxadiazol-3-yl]-N-phenyl-[1,3,5]triazine-2,4-diamine], the IC50 came to 1910 nM.
Same read-out and setting: in the case of `CC(C)S(=O)(=O)N1CCC(c2nc(-c3nc(N)nc(Nc4ccccc4)n3)no2)CC1` [Example 515, 2-N-phenyl-6-{5-[1-(propane-2-sulfonyl)piperidin-4-yl]-1,2,4-oxadiazol-3-yl}-1,3,5-triazine-2,4-diamine] it was 797 nM; in that of `CN(c1ccccc1)c1nc(N)nc(-c2noc(-c3ccc(NC4CCOC4)nc3)n2)n1` (centres unmarked) [Example 328, 2-N-methyl-6-(5-{6-[(oxolan-3-yl)amino]pyridin-3-yl}-1,2,4-oxadiazol-3-yl)-2-N-phenyl-1,3,5-triazine-2,4-diamine], 7960 nM.
As for `CN(c1ccccc1)c1nc(N)nc(-c2noc(N3CCC(NC(=O)C(F)(F)F)CC3)n2)n1` [Example 274, N-[1-(3-{4-amino-6-[methyl(phenyl)amino]-1,3,5-triazin-2-yl}-1,2,4-oxadiazol-5-yl)piperidin-4-yl]-2,2,2-trifluoroacetamide], the IC50 came to 8580 nM.
The same measure, in the same setting: with `Nc1nc(Nc2ccccc2)nc(-c2noc(N3CCCCC3)n2)n1` [Example 221, 2-N-Phenyl-6-[5-(piperidin-1-yl)-1,2,4-oxadiazol-3-yl]-1,3,5-triazine-2,4-diamine] the figure was 729 nM; with `CC(=O)N1CC(c2nc(-c3nc(N)nc(N(C)c4ccccc4)n3)no2)C1` [Example 384, 1-[3-(3-{4-Amino-6-[methyl(phenyl)amino]-1,3,5-triazin-2-yl}-1,2,4-oxadiazol-5-yl)azetidin-1-yl]ethan-1-one], more than 8590 nM; with `CN(c1ccc(F)cc1)c1nc(N)nc(-c2noc(-c3ncccc3F)n2)n1` [Example 474, 2-N-(4-fluorophenyl)-6-[5-(3-fluoropyridin-2-yl)-1,2,4-oxadiazol-3-yl]-2-N-methyl-1,3,5-triazine-2,4-diamine], 289 nM.
Same read-out and setting: with `CC(C)OC(=O)c1ccc(-c2nc(-c3nc(N)nc(N(C)c4ccccc4)n3)no2)cn1` [Example 289, propan-2-yl 5-(3-{4-amino-6-[methyl(phenyl)amino]-1,3,5-triazin-2-yl}-1,2,4-oxadiazol-5-yl)pyridine-2-carboxylate] the figure was 390 nM; with `COCCOc1ccc(-c2nc(-c3nc(N)nc(N(C)c4ccccc4)n3)no2)cn1` [Example 329, 6-{5-[6-(2-methoxyethoxy)pyridin-3-yl]-1,2,4-oxadiazol-3-yl}-2-N-methyl-2-N-phenyl-1,3,5-triazine-2,4-diamine], 894 nM.
Still for that read-out and setting: in the case of `CC(C)OC[C@@H]1[C@H]2CN(c3nc(-c4nc(N)nc(Nc5ccccc5)n4)no3)C[C@@H]12` [Example 398, 2-N-phenyl-6-{5-[(1R,5S,6S)-6-[(propan-2-yloxy)methyl]-3-azabicyclo[3.1.0]hexan-3-yl]-1,2,4-oxadiazol-3-yl}-1,3,5-triazine-2,4-diamine] it was 691 nM; in that of `CN(c1ccccc1)c1nc(N)nc(-c2noc([C@H]3CCCN3C(=O)CC3CC3)n2)n1` [Example 449, 1-[(2R)-2-(3-{4-amino-6-[methyl(phenyl)amino]-1,3,5-triazin-2-yl}-1,2,4-oxadiazol-5-yl)pyrrolidin-1-yl]-2-cyclopropylethan-1-one], 2570 nM; in that of `CN(c1ccccc1)c1nc(N)nc(-c2noc([C@H]3CCCN3CCC(F)(F)F)n2)n1` [Example 442, 2-N-methyl-2-N-phenyl-6-{5-[(2R)-1-(3,3,3-trifluoropropyl)pyrrolidin-2-yl]-1,2,4-oxadiazol-3-yl}-1,3,5-triazine-2,4-diamine], 7180 nM.
Consider `CN(c1ccccc1)c1nc(N)nc(-c2noc(-c3ncccc3F)n2)n1` [Example 482, 6-[5-(3-Fluoropyridin-2-yl)-[1,2,4]oxadiazol-3-yl]-N-methyl-N-phenyl-[1,3,5]triazine-2,4-diamine], for which the IC50 amounted to 647 nM.
As for `CN(c1ccccc1)c1nc(N)nc(-c2noc(N3CC4CCC(C3)O4)n2)n1` [Example 500, 2-N-methyl-6-(5-{8-oxa-3-azabicyclo[3.2.1]octan-3-yl}-1,2,4-oxadiazol-3-yl)-2-N-phenyl-1,3,5-triazine-2,4-diamine], the IC50 was more than 9120 nM.
In the case of `Nc1nc(Nc2ccccc2)nc(-c2noc(C(=O)NC3Cc4ccccc4C3)n2)n1` [Example 229, 3-[4-amino-6-(phenylamino)-1,3,5-triazin-2-yl]-N-(2,3-dihydro-1H-inden-2-yl)-1,2,4-oxadiazole-5-carboxamide], the IC50 is 9190 nM.
Turning to `CN(c1ccccc1)c1nc(N)nc(-c2noc([C@@H]3CCCN3CCC(F)(F)F)n2)n1` [Example 441, 2-N-Methyl-2-N-phenyl-6-{5-[(2S)-1-(3,3,3-trifluoropropyl)pyrrolidin-2-yl]-1,2,4-oxadiazol-3-yl}-1,3,5-triazine-2,4-diamine], the IC50 is 1450 nM.
Still for that read-out and setting: in the case of `Nc1nc(Nc2ccc(F)c(Cl)c2)nc(-c2noc(-c3ccc(OCC(F)(F)F)nc3)n2)n1` [Example 413, 2-N-(3-Chloro-4-fluorophenyl)-6-{5-[6-(2,2,2-trifluoroethoxy)pyridin-3-yl]-1,2,4-oxadiazol-3-yl}-1,3,5-triazine-2,4-diamine] it was 9020 nM.
On the same count and under the same terms, with `COc1cccc(-c2nc(-c3nc(N)nc(N(C)c4ccccc4)n3)no2)n1` [Example 415, 6-[5-(6-methoxypyridin-2-yl)-1,2,4-oxadiazol-3-yl]-2-N-methyl-2-N-phenyl-1,3,5-triazine-2,4-diamine] the figure was 567 nM; with `CC(OCc1ccc(-c2nc(-c3nc(N)nc(Nc4ccccc4)n3)no2)cn1)C(F)(F)F` (centres unmarked) [Example 210, 2-N-phenyl-6-[5-(6-{[(1,1,1-trifluoropropan-2-yl)oxy]methyl}pyridin-3-yl)-1,2,4-oxadiazol-3-yl]-1,3,5-triazine-2,4-diamine], 33 nM.
On the same count and under the same terms, with `CN(c1ccccc1)c1nc(N)nc(-c2noc(-c3cccnc3C(=O)NC3CCC3)n2)n1` [Example 374, 3-(3-{4-amino-6-[methyl(phenyl)amino]-1,3,5-triazin-2-yl}-1,2,4-oxadiazol-5-yl)-N-cyclobutylpyridine-2-carboxamide] the figure was 2080 nM; with `CC(OCC(F)(F)F)c1ccc(-c2nc(-c3nc(N)nc(N(C)c4ccccc4)n3)no2)cn1` (centres unmarked) [Example 209, 2-N-methyl-2-N-phenyl-6-(5-{6-[1-(2,2,2-trifluoroethoxy)ethyl]pyridin-3-yl}-1,2,4-oxadiazol-3-yl)-1,3,5-triazine-2,4-diamine], 74 nM; with `CN(c1ccccc1)c1nc(N)nc(-c2noc(-c3cccnc3C(=O)OC3CCCC3)n2)n1` [Example 380, cyclopentyl 3-(3-{4-amino-6-[methyl(phenyl)amino]-1,3,5-triazin-2-yl}-1,2,4-oxadiazol-5-yl)pyridine-2-carboxylate], 83 nM.
As for `CN(c1ccccc1)c1nc(N)nc(-c2noc(-c3ncccc3OC3CCC3)n2)n1` [Example 491, 6-[5-(3-cyclobutoxypyridin-2-yl)-1,2,4-oxadiazol-3-yl]-2-N-methyl-2-N-phenyl-1,3,5-triazine-2,4-diamine], the IC50 was determined as 1040 nM.

The experiment is the same for the next values; noted with them: marker c: Automated patch clamp data; read-out: Nav 1.7 activity.
In the case of `CN(c1ccccc1)c1nc(N)nc(-c2noc(-c3ccc(F)cn3)n2)n1` [Example 153, 6-[5-(5-fluoropyridin-2-yl)-1,2,4-oxadiazol-3-yl]-2-N-methyl-2-N-phenyl-1,3,5-triazine-2,4-diamine], the IC50 was found to be 1390 nM.
On the same count and under the same terms, with `CN(c1ccccc1)c1nc(N)nc(-c2noc(-c3ccccc3F)n2)n1` [Example 124, 6-[5-(2-Fluoro-phenyl)-[1,2,4]oxadiazol-3-yl]-N-methyl-N-phenyl-[1,3,5]triazine-2,4-diamine] the figure was 428 nM.
On the same count and under the same terms, with `CCN(c1ccccc1)c1nc(N)nc(-c2noc(-c3cccc(OC)c3)n2)n1` [Example 94, N-Ethyl-6-[5-(3-methoxy-phenyl)-[1,2,4]oxadiazol-3-yl]-N-phenyl-[1,3,5]triazine-2,4-diamine] the figure was 813 nM; with `Cc1ccc(-c2nc(-c3nc(N)nc(N(C)c4cccc(Cl)c4)n3)no2)o1` [Example 102, N-(3-Chloro-phenyl)-N-methyl-6-[5-(5-methyl-furan-2-yl)-[1,2,4]oxadiazol-3-yl]-[1,3,5]triazine-2,4-diamine], 489 nM; with `CN(c1nc(N)nc(-c2noc(-c3cccs3)n2)n1)c1ccccc1F` [Example 90, N-(2-Fluoro-phenyl)-N-methyl-6-(5-thiophen-2-yl-[1,2,4]oxadiazol-3-yl)-[1,3,5]triazine-2,4-diamine], 415 nM.
The same measure, in the same setting: with `CN(c1cccc(F)c1)c1nc(N)nc(-c2noc(-c3cccs3)n2)n1` [Example 99, N-(3-Fluoro-phenyl)-N-methyl-6-(5-thiophen-2-yl-[1,2,4]oxadiazol-3-yl)-[1,3,5]triazine-2,4-diamine] the figure was 1130 nM; with `Cc1ccc(-c2nc(-c3nc(N)nc(N(C)c4ccccc4)n3)no2)cc1` [Example 29, N-Methyl-N-phenyl-6-(5-p-tolyl-[1,2,4]oxadiazol-3-yl)-[1,3,5]triazine-2,4-diamine], 1380 nM; with `Nc1nc(-c2noc(-c3ccc(OCC(F)(F)F)nc3)n2)nc(N(CC(F)(F)F)c2ccccc2)n1` [Example 150, 2-N-phenyl-6-{5-[6-(2,2,2-trifluoroethoxy)pyridin-3-yl]-1,2,4-oxadiazol-3-yl}-2-N-(2,2,2-trifluoroethyl)-1,3,5-triazine-2,4-diamine], 222 nM.

Staying with this experiment, now noted: no platform marker printed in the cell; read-out: Nav 1.7 activity.
Regarding `Nc1nc(-c2noc(-c3ccco3)n2)nc(N2CCCc3ccccc32)n1` [Example 116, 4-(3,4-Dihydroquinolin-1-yl)-6-(5-furan-2-yl-[1,2,4]oxadiazol-3-yl)-[1,3,5]triazine-2-amine], the IC50 worked out at 1620 nM.

Source of the values: patent publication US8895733B2 (Novartis AG, priority 2010, dated 2014).
